From patent publication US12728122B2, “Treatment of urothelial and kidney cancers by use of endothelin B receptor antagonists” (ENB Therapeutics, Inc., priority 2019, dated 2026)
Entries after “also recorded” stand apart in the source; their conditions may differ.

Key:
[1] = molecular target: T1, human Endothelin receptor type A (ETA) (Homo sapiens, UniProt P25101); test: ETA (h) cellular antagonist effect; format: cell-based
T1 sequence (P25101 21-427): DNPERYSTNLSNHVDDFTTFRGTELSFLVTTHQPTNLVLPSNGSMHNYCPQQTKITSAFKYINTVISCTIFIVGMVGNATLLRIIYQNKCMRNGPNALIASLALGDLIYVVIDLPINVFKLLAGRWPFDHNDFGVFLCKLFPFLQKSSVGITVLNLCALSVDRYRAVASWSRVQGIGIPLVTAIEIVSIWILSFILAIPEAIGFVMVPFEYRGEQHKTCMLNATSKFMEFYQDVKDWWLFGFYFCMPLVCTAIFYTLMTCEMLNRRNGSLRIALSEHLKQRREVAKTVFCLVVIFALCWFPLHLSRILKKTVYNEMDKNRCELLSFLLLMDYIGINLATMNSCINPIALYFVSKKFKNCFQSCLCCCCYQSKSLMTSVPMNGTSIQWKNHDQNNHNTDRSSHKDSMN
Method: FIGS. 5A and 5B illustrate human (“h”) Endothelin receptor type A (“ETA”) inhibitory effect for A) BQ-788 and B) BQ-788-B (Compound 1), a specifically deuterated ETBR antagonist. Cellular agonist effect was calculated as a % of control response to a known reference agonist for ETA (h), and cellular antagonist effect was calculated as a % inhibition of control reference agonist response for ETA.
Determination of ETA (h) inhibitory effect for BQ-788 and BQ-788-B (COMPOUND 1). […] Cellular agonist effect was calculated as a % of control response to a known reference agonist for ETA (h), and cellular antagonist effect was calculated as a % inhibition of control reference agonist response for ETA.

[2] = tested on: plasma ET-1; test: Plasma ET-1 ELISA after IV infusion, indirect measure of ETBR engagement; format: in vivo; settings: rats, 250 μg/kg IV infusion
Method: Plasma concentrations of BQ-788 versus BQ-788-B (COMPOUND 1). […] Briefly, rats (N=4 animals per timepoint) were administered either BQ-788 or the deuterated form, BQ-788-B (COMPOUND 1) at a dose of 250 μg/kg via IV infusion. Plasma samples were collected at various time points and ET-1 ELISA performed. BQ788 and BQ788-B are peptide drugs that are rapidly degraded in plasma and thus drug levels are difficult to detect directly. […] As such, plasma levels of ET-1 are commonly used as an indirect measure of BQ-788 biologic activity.

[3] = tested on: V600E+ (BRAF mutated) SM1 tumor; test: Syngeneic melanoma V600E+ (BRAF mutated) SM1 tumor model, tumor volume and IHC; format: in vivo, C57BL/6 mice
Method: The syngeneic melanoma model V600E+ (BRAF mutated) SM1 tumor model was used in C57BL/6 mice to assess efficacy of deuterated ETBR antagonists in combination with immunotherapeutics (“B+P”) as compared to a standard treatment, dabrafenib with anti-PD1 (“D+P”). […] In this study 6-8 week old female C57BL/6 mice were inoculated with SM1 tumor fragments (TME* components present). Dosing was initiated when tumors were 150 mm3. The general dosing schemes were as follows: dabrafenib (30 mg/kg daily by oral gavage), immunotherapeutic 10 mg/kg Q4D IP beginning 2 days after dabrafenib), deuterated ETBR antagonist (4 μg administered QOD IV beginning 2 days after dabrafenib). Tumors were measured three times per week, and the study was terminated after 21 days of dosing and IHC analysis of tumors was performed.
TLOs are functionally equivalent to lymph nodes, produce tumor-specific T- and B-cells, and induce long lasting anti-tumor immunity.
FIG. 11 provides table summaries of the results obtained with combination therapies (two- and three-part), TLO formation and efficacy for tumor eradication. The model system tested is as described for FIG. 8. The combinations included dabrafenib+anti-PD1 (“D+P”); dabrafenib+anti-PD1+BQ-788-B (COMPOUND 1) at 0.6 μg (“D+P+B (0.6 μg)”); dabrafenib+anti-PD1+BQ-788-B (COMPOUND 1) at 4.0 μg (“D+P+B (4.0 μg)”); dabrafenib+anti-PD1+BQ-788-B (COMPOUND 1) at 100 μg (“D+P+B (100 μg)”); and anti-PD1+BQ-788-B (COMPOUND 1) at (4.0 μg) (“P+B (4.0 μg)”). […] FIG. 12 presents the efficacy results as a function of tumor volume (mm3).
6 week old female C57BL/6 mice, n=5 per group, were implanted with V600E+ melanoma cancer tumor cells. Once tumors were established, mice were dosed with ETBR antagonists and immune checkpoint inhibitors combination therapy. 21 days post treatment, histological examination was performed, FIG. 20.

[4] = tested on: bladder cancer tumor cells, MB49-PDIRA-220; test: Syngeneic bladder cancer murine model, tumor volume; format: in vivo, C57BL/6 mice; settings: for anti-bladder cancer treatment efficacy (tumor volume): vs control and single agents
Method: 6 week old female C57BL/6 mice, n=5 per group, were implanted with bladder cancer tumor cells, MB49-PDIRA-220 at the right flank. When tumors reached from about 50 mm^3-75 mm^3 in volume, mice were separated into 4 treatment groups: (1) dosed with 4 μg of BQ-788-B (Compound 1) intravenously on days 1, 3, 5, 8, 10, 12 and 15 and with 100 μg of an anti-PD-1 agent intraperitoneally on days 1, 4, 9 and 13; (2) dosed with 4 μg of BQ-788-B (Compound 1) intravenously on days 1, 3, 5, 8, 10, 12 and 15; (3) dosed with 100 μg of an anti-PD-1 agent intraperitoneally on days 1, 4, 9 and 13; or (4) untreated control. Tumor volume measurements were taken every two days post treatment.
6 week old female C57BL/6 mice, n=5 per group, were implanted with bladder cancer tumor cells, MB49-PD1RA-220 at the right flank. When tumors reached from about 100 mm^3 in volume, mice were separated into 4 treatment groups: (1) dosed with BQ-788-B (Compound 1) intravenously on days 1, 3, 5, and 8 with 100 μg of an immunotherapeutic agent, namely an anti-PD-1 antibody intraperitoneally on days 1, 4, 9 and 13 (2) dosed with 4 μg of BQ-788-B (Compound 1) intravenously on days 1, 3, 5, and 8 (3) dosed with 100 μg of an anti-PD-1 agent intraperitoneally on days 1, 4, 9 and 13 or (4) untreated control. Tumor volume measurements were taken 3 times per week. The study was terminated on day 8 due to morbidity of control groups.
6 week old female C57BL/6 mice, n=5 per group, were implanted with bladder cancer tumor cells, MB49-PDIRA-220 at the right flank. When tumors reached from about 25 mm^3-50 mm^3 volume, mice were separated into 4 treatment groups: (1) dosed with 4 μg of BQ-788-B (BQ788) intravenously on days 1, 3, 5, and 8 with 100 μg of an anti-PD-1 agent intraperitoneally on days 1, 4, and 9 (2) dosed with 4 μg of BQ-788-B (BQ788) intravenously on days 1, 3, 5, and 8 (3) dosed with 100 μg of an anti-PD-1 agent intraperitoneally on days 1, 4, and 9 or (4) untreated control. Tumor volume measurements were taken 3 times per week. The study was terminated on day 12 due to morbidity of control groups.

[5] = molecular target: T2, Recombinant human CXCR4 (Homo sapiens, UniProt P61073); test: CXCR4 (h) cellular antagonist effect, impedance by dielectric spectroscopy; format: cell-based; settings: CHO cells, stimulated with 1 nM SDF-1α, 28° C
T2 construct: expressed in transfected cells; host or cells: CHO cells
Method: FIGS. 4A and 4B illustrates human (“h”) CXCR inhibitory effects for, A) BQ-788 and B) BQ-788-B (Compound 1), a specifically deuterated ETBR antagonist. Cellular agonist effect was calculated as a % of control response to a known reference agonist for CXCR4 (h), and cellular antagonist effect was calculated as a % inhibition of control reference agonist response for CXCR4.
Determination of CXCR4 inhibitory effect. The inhibitory effect on CXCR4 (h) was determined for BQ-788 (FIG. 4A), and BQ-788-B (COMPOUND 1) (FIG. 4B). Cellular agonist effect was calculated as a % of control response to a known reference agonist for CXCR4 (h), and cellular antagonist effect was calculated as a % inhibition of control reference agonist response for CXCR4. Recombinant human CXCR4 was expressed in CHO cells, and stimulated with 1 nM SDF-1α and incubated at 28° C. Dielectric spectroscopy was used to measure impedance of the cells.

[6] = combination with anti-PD1, histology 21 days after treatment

T2 sequence (P61073 whole entry): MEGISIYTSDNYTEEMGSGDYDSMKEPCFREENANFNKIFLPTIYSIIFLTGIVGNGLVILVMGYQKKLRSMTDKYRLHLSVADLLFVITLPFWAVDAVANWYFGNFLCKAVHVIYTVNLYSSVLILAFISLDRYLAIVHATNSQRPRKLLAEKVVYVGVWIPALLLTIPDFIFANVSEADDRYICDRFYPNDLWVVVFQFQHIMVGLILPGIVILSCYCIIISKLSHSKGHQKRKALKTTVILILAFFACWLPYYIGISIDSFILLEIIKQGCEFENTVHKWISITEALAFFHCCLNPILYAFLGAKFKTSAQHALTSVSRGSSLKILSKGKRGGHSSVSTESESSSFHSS

CCCC[C@@H](NC(=O)[C@@H](Cc1cn(C(=O)OC)c2ccccc12)NC(=O)[C@H](CC(C)(C)C)NC(=O)N1[C@H](C)CCC[C@@H]1C)C(=O)O [BQ-788, N-[([2R,6S]-2,6-dimethyl-1-piperidinyl)carbonyl]-4-methyl-L-leucyl-N-[(1R)-1-carboxylatopentyl]-1-[methoxycarbonyl]-D-tryptophanamide, reference compound]
IC50, ETA (h) inhibitory effect [1]: not calculable | plasma ET-1 transient peak at [2]: about 30 minutes

[2H]CC1CCCC(C[2H])N1C(=O)NC(CC(C)(C)C)C(=O)NC(Cc1cn(C(=O)OC)c2ccccc12)C(=O)NC(CCCC)C(=O)O (stereo not drawn) [BQ-788-B]
CD8+ TIL staining distribution ([3]; BQ-788-B 0.6 μg + immune checkpoint inhibitor + dabrafenib, 21 days): diffuse CD8+ TIL staining | CD8+ TIL staining distribution ([3]; BQ-788-B 4.0 μg + anti-PD1 + dabrafenib, 21 days): peripheral distribution of TILs | CD8+ TIL staining distribution ([3]; BQ-788-B 100 μg + anti-PD1 + dabrafenib, 21 days): peripheral distribution of TILs | interaction with anti-PD1 / anti-oncologic agents ([3]; combination therapy, tumor volume): synergistic results; also recorded: synergistic activity; also recorded: restores sensitivity to the anti-PD1 antibody | lymphocyte infiltration of tumor (CD8+, CD4+, Treg staining) [3, 6]: robust infiltration by CD8+ lymphocytes (TILs); also recorded: strong mobilization of lymphocytes to the tumor | tertiary lymphoid organ (TLO) formation [3, 6]: most frequently associated with intratumoral TLO formation and tumor reduction; also recorded: induced tertiary lymphoid organ (TLO) formation | tumor outcome (volume, IHC) ([3]; deuterated ETBR antagonist 4 μg QOD IV + anti-PD1 10 mg/kg Q4D IP, 21 days): tumor shrinkage below baseline; also recorded: tumors had been eradicated leaving only residual adipose tissue; also recorded: eradicated the tumors | IC50, ETA (h) inhibitory effect [1]: not calculable | plasma ET-1 prolonged peak out to [2]: about 3 hours | plasma ET-1 response relative to BQ-788 [2]: enhanced duration and amplitude of response; also recorded: enhanced plasma ET-1 concentration | interaction with anti-PD1 ([4]; Example 3): synergy | anti-bladder cancer treatment efficacy (tumor volume) ([4]; Example 3: 4 μg IV days 1,3,5,8,10,12,15 + 100 μg anti-PD-1 IP): greatest anti-bladder cancer treatment efficacy | interaction with anti-PD1 ([4]; Example 5): synergy | anti-bladder cancer treatment efficacy (tumor volume) ([4]; Example 5: IV days 1,3,5,8 + 100 μg anti-PD-1 IP, tumors about 100 mm^3 at start): greatest anti-bladder cancer treatment efficacy | interaction with anti-PD1 ([4]; Example 6): synergy | anti-bladder cancer treatment efficacy (tumor volume) ([4]; Example 6: 4 μg IV days 1,3,5,8 + 100 μg anti-PD-1 IP days 1,4,9): greatest anti-bladder cancer treatment efficacy | IC50, CXCR4 (h) inhibitory effect [5]: not calculable

CC(C)(C)c1nc(-c2cccc(NS(=O)(=O)c3c(F)cccc3F)c2F)c(-c2ccnc(N)n2)s1 [dabrafenib, reference compound]
tumor outcome (volume) ([3]; dabrafenib 30 mg/kg daily oral gavage + anti-PD1 10 mg/kg Q4D IP, 21 days): failed to shrink tumors but demonstrated intermediate tumor growth inhibition | effect of adding dabrafenib to anti-PD1/BQ-788-B combination ([3]; triple combination, tumor volume): impairs efficacy
